{
  "source": "patent US20230054767A1",
  "about": "“COMBINATIONS” (Recurium IP Holdings, LLC, priority 2019, published 2023)",
  "assay_type_in_all_cases": "in vivo",
  "key": {"MCF-7 cells [1]": {"system": "MCF-7 cells", "experiment": "Example 1: MCF-7 xenograft tumor model, Compound A and Compound 5", "details": "BALB/c nude mice, orally once a day for 21 days, Compound A 10 mg/kg, Compound 5 200 mg/kg, alone or combined", "protocol": "Example 1: MCF-7 cells were grown in DMEM Medium supplemented with 15% heat inactivated fetal bovine serum at 37° C. in an atmosphere of 5% CO2 in air. BALB/c nude mice were implanted subcutaneously on the 2nd right mammary fat pad with a single cell suspension of 95% viable tumor cells (1.5×10^7) in 200 μL DMEM Matrigel mixture (1:1 ratio) without serum. When tumors reached approximately 172 mm^3, animals were randomly distributed into treatment groups of 10 animals each and dosed orally, once a day for 21 days as follows: vehicle at the same volume as the single agent treatment; Compound A (alternatively referred to as “Compound (A)” in the specification and figures) at 10 mg/kg; Compound 5 at 200 mg/kg; and the combination treatment of Compound A 10 mg/kg) and Compound 5 (200 mg/kg). In addition, estradiol benzoate injections were given subcutaneously (40 μg/ 20 μL, twice weekly) to all treatment groups. Tumor volumes were evaluated twice per week to calculate tumor volume over time, and mice were weighed twice per week as a surrogate for signs of toxicity. Tumor growth inhibition (TGI) was calculated using the following equation TGI=(1−(Td−T0)/(Cd−C0))×100%. […] The percent tumor regression was calculated using the formula: (1−(Td/T0))×100%."}, "MCF-7 cells [2]": {"system": "MCF-7 cells", "experiment": "Example 2: MCF-7 xenograft tumor model, Compound A (5 mg/kg) and Compound 5", "details": "BALB/c nude mice, orally once a day for 24 days, Compound 5 200 mg/kg, alone or combined", "protocol": "(§1) Example 1: MCF-7 cells were grown in DMEM Medium supplemented with 15% heat inactivated fetal bovine serum at 37° C. in an atmosphere of 5% CO2 in air. BALB/c nude mice were implanted subcutaneously on the 2nd right mammary fat pad with a single cell suspension of 95% viable tumor cells (1.5×10^7) in 200 μL DMEM Matrigel mixture (1:1 ratio) without serum. […] Tumor volumes were evaluated twice per week to calculate tumor volume over time, and mice were weighed twice per week as a surrogate for signs of toxicity. […] The percent tumor regression was calculated using the formula: (1−(Td/T0))×100%.\nExample 2: MCF-7 cells were grown in DMEM Medium supplemented with 15% heat inactivated fetal bovine serum at 37° C. in an atmosphere of 5% CO2 in air. […] Tumor volumes were evaluated twice per week to calculate tumor volume over time, and mice were weighed twice per week as a surrogate for signs of toxicity. TGI and Tumor regression values were calculated using the equations provided in Example 1. […]"}, "MCF-7 cells [3]": {"system": "MCF-7 cells", "experiment": "Example 3: MCF-7 xenograft tumor model, Compound A and Compound 6", "details": "BALB/c nude mice, orally once a day for 28 days, Compound A 10 mg/kg, Compound 6 50 mg/kg, alone or combined", "protocol": "as §1\nExample 3: MCF-7 cells were grown in DMEM Medium supplemented with 15% heat inactivated fetal bovine serum at 37° C. in an atmosphere of 5% CO2 in air. […] Tumor volumes were evaluated twice per week to calculate tumor volume over time, and mice were weighed twice per week as a surrogate for signs of toxicity. TGI and Tumor regression values were calculated using the equations provided in Example 1."}},
  "data": [
    {"smiles": "C[C@@H]1Cc2c([nH]c3ccccc23)[C@@H](c2c(F)cc(/C=C/C(=O)O)cc2F)N1C12CC(C1)C2", "note": "[Compound A]", "values": [
      {"measurement": "TUMOR REGRESSION % (DAY 21)", "setting": "MCF-7 cells [1]", "value": 0, "unit": "%"},
      {"measurement": "TGI % (DAY 21)", "setting": "MCF-7 cells [1]; estradiol benzoate s.c.", "value": 81, "unit": "%"},
      {"measurement": "TUMOR REGRESSION % (DAY 24)", "setting": "MCF-7 cells [2]", "value": 8, "unit": "%"},
      {"measurement": "TGI % (DAY 24)", "setting": "MCF-7 cells [2]; estradiol benzoate s.c.", "value": 108, "unit": "%"},
      {"measurement": "TUMOR REGRESSION % (DAY 29)", "setting": "MCF-7 cells [3]", "value": 33, "unit": "%"},
      {"measurement": "TGI % (DAY 29)", "setting": "MCF-7 cells [3]; estradiol benzoate s.c.", "value": 120, "unit": "%"}
    ]}
  ]
}
